One assay deals with lung cancer (A549) cells. In words: MTT dose response cytotoxicity, A549. Particulars: Homo sapiens, 48 h. The format is cell-based. As to the method: (§1) Cells were seeded as described in above. […] The medium was aspirated and replaced with 200 μL fresh medium containing the dilution of the respective test compound. The test sample were added to each well and the plates were incubated for a further 48 h at 37 °C under 5% CO2 atmosphere in a humidified incubator. After this incubation period, the medium was removed and then replaced with 100 μL fresh culture medium containing MTT at a final concentration of 0.5 mg/mL. The 96-well plates were returned to the incubator and incubated for an additional 3 h. The medium was removed and the MTT crystals were solubilized in 100 μL DMSO and the absorbance was measured at 560 nm using a Labsystems Multiwell Scanning spectrophotometer (Thermo Fischer Scientific, Edenvale, South Africa).
(§2) Quantification of live and dead cells for the screening assay was performed using the ImageXpress Micro XLS Widefield Microscope and acquired images analysed using the MetaXpress software and Multi-Wavelength Cell Scoring Application Module. Acquired data was transferred to an EXCEL spreadsheet and relative cell viability was determined using quadruplicate wells for each concentration. Untreated cells were considered to have 100% cell viability (i.e., the mean OD of the untreated wells = 100% viability). Cell viabilities in other test wells were calculated relative to the untreated control and expressed as a percentage. Dose response analysis was performed using the statistical software GraphPad Prism and IC50 values calculated from the concentration-response data using a mathematical Hill function.

For assay [1], the system named is cervical cancer (HeLa) cells. In words: MTT dose response cytotoxicity, HeLa. Type of assay: cell-based. Particulars: Homo sapiens, 48 h. As to the method: as §1, §2
In assay [2] the test system is HeLa cells. In words: Caspase 8 and 3 activation (immunochemical), HeLa. Type of assay: cell-based, human. Particulars: 24 h exposure at IC50 values. How it is done:
(§3) Several distinctive mechanisms of cancer cell death such as apoptosis, necrosis, autophagy and cornification have been identified, and these are characterized by differences in morphology and biochemical changes. A major biochemical feature of apoptosis is the activation of caspases, which plays a central role in the morphological changes associated with apoptosis. Caspase activation was determined using immunochemical methods and the antibodies against activated caspase 8 and caspase 3. […] Activated caspase 8 can be used as a convenient indicator of involvement of the extrinsic death receptor pathway of apoptosis. Executioner caspases including caspase 3 are, in turn, activated by the initiator caspases. This protein is either partially or totally responsible for the cleavage of many key proteins such as PARP, DNA protein kinases and retinoblastoma protein [25]. […] This was true for both activated caspase 8 and 3. A more distinct increase was evident with caspase 3 albeit less pronounced than that of 4c and the increase was expected as caspase 3 is activated by initiator caspase including caspase 8, which is a later event in apoptosis. […] Prolonged treatment of the cells with compounds 5e–h for 48 h or more, for example, would probably result in significant effects. We also evaluated compound 5g for potential to induce other key apoptotic biochemical features such as phosphatidylserine (PS) translocation, cell cycle arrest and mitochondrial membrane depolarization.
(§4) Compounds 4c and 5g were selected for mechanism studies and these test compounds were reconstituted in dimethyl sulphoxide (DMSO) to give a final concentration of 40 mM. Samples were stored at 4 °C until required. […]
(§5) Quantification of live and dead cells for the assay was performed using the ImageXpress Micro XLS Widefield Microscope and acquired images analysed using the MetaXpress software and Multi-Wavelength Cell Scoring Application Module and the Cell Cycle Module. Acquired data was transferred to an EXCEL spreadsheet and data was analysed and processed.

The subject of assay [3] is A549 cells. In words: Caspase 8 and 3 activation (immunochemical), A549. The format is cell-based, human. The note with it: 24 h exposure at IC50 values. As to the method:
as §3, §4, §5

The test system of assay [4] is HeLa cells. In words: Other apoptotic features (PS translocation, cell cycle arrest, mitochondrial membrane depolarization), HeLa. The format is cell-based, human. Particulars: after 24 h (data not included). How it is done:
(§6) Several distinctive mechanisms of cancer cell death such as apoptosis, necrosis, autophagy and cornification have been identified, and these are characterized by differences in morphology and biochemical changes. A major biochemical feature of apoptosis is the activation of caspases, which plays a central role in the morphological changes associated with apoptosis. Caspase activation was determined using immunochemical methods and the antibodies against activated caspase 8 and caspase 3. […] Activated caspase 8 can be used as a convenient indicator of involvement of the extrinsic death receptor pathway of apoptosis. Executioner caspases including caspase 3 are, in turn, activated by the initiator caspases. This protein is either partially or totally responsible for the cleavage of many key proteins such as PARP, DNA protein kinases and retinoblastoma protein [25]. […] This was true for both activated caspase 8 and 3. A more distinct increase was evident with caspase 3 albeit less pronounced than that of 4c and the increase was expected as caspase 3 is activated by initiator caspase including caspase 8, which is a later event in apoptosis. […] We also evaluated compound 5g for potential to induce other key apoptotic biochemical features such as phosphatidylserine (PS) translocation, cell cycle arrest and mitochondrial membrane depolarization.

Assay [5] has as its system A549 cells. Kind of assay: Other apoptotic features (PS translocation, cell cycle arrest, mitochondrial membrane depolarization), A549. Type of assay: cell-based, human. Particulars: after 24 h (data not included). How it is done: as §6
The test system of assay [6] is neurotesin receptor type 2 (NTS2). More on the design: method as in PMID 25157640. The note with it: cited from earlier work.

The IC50 is the concentration that gives 50% inhibition. As to `CC(=O)Nc1cc(Br)cc2c(C(=O)C(F)(F)F)c(-c3cccc(Cl)c3)[nH]c12` [Compound 5g, N-[5-Bromo-2-(3-chlorophenyl)-3-trifluoroacetyl-1H-indol-7-yl]acetamide], the IC50 in the assay on lung cancer (A549) cells came out at 2720 ± 430 nM; in assay [1], 8740 ± 940 nM. Besides, the “Caspase 8 and 3 activation (% change in mean integrated fluorescence intensity of the untreated control)” value with HeLa cells [2] is reported as “decrease”; in the assay on A549 cells [3], “expected increase”. For the same compound, the “PS translocation, cell cycle arrest and mitochondrial membrane depolarization” value in the assay on HeLa cells [4] and in the assay with A549 cells [5] was “failed to induce” throughout.
Consider `Cc1ccc(S(=O)(=O)Nc2ccc3c(c2)c(C(=O)C(F)(F)F)cn3CC(=O)N[C@@H](CC(C)C)C(=O)O)cc1` [NTRC-824, N-[(5-{[(4-methylphenyl)sulfonyl]amino}-3-(trifluoroacetyl)-1H-indol-1-yl)acetyl]-L-leucine], for which, in assay [6] (NTS2), the “fold more active than the expected C-3 unsubstituted analogue” value is recorded as 90 fold. Also, the IC50 in assay [6] is 38 nM.

The values above are taken from article PMC6027433, “Synthesis, Evaluation of Cytotoxicity and Molecular Docking Studies of the 7-Acetamido Substituted 2-Aryl-5-bromo-3-trifluoroacetylindoles as Potential Inhibitors of Tubulin Polymerization” (Pharmaceuticals, 2018).
